In patent publication US20220323406A1, “METHODS AND COMPOSITIONS FOR DIFFERENTIATING STEM CELLS” (Massachusetts Institute of Technology, priority 2019, published 2022):

Experiments:
[1] = system: ENR+CD organoids (ISC to Paneth cell differentiation); test: Primary screen: basal (non-stimulated) lysozyme secretion LYZ.NS, 2.5-D 384-well ENR+CD organoid differentiation; type: cell-based, mouse
Description: (§1) High-throughput screening.

[2] = system: ENR+CD organoids (ISC to Paneth cell differentiation); test: Primary screen: CCh-stimulated lysozyme secretion LYZ.S, 2.5-D 384-well ENR+CD organoid differentiation; type: cell-based, mouse; details: primary screen
Description: as §1

ENR+CD organoids = test: Primary screen: ATP (CellTiter-Glo 3D, CTG) cell number/viability, 2.5-D 384-well ENR+CD organoids; details: primary screen; for Z.CTG: standard z score;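 for all read-outs here: compounds given at plating and again on day 3 over a 6-day differentiation from ENR+CV stem-cell-enriched precursors, ATP measured on day 6, plate median as control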
[3] = dose 0.08 uM, FC vs plate median
[4] = dose 0.40 uM, FC vs plate median
[5] = dose 2.00 uM, FC vs plate median
[6] = dose 10.00 uM, FC vs plate median

Row | Compound | Dose.FC.LYZ.NS ([1]; primary screen, dose 0.08 uM) | Z.LYZ.NS (standard z score) ([1]; primary screen, dose 0.08 uM) | Dose.FC.LYZ.NS ([1]; primary screen, dose 0.40 uM) | Z.LYZ.NS (standard z score) ([1]; primary screen, dose 0.40 uM) | Dose.FC.LYZ.NS ([1]; primary screen, dose 2.00 uM) | Z.LYZ.NS (standard z score) ([1]; primary screen, dose 2.00 uM) | Dose.FC.LYZ.NS ([1]; primary screen, dose 10.00 uM) | Z.LYZ.NS (standard z score) ([1]; primary screen, dose 10.00 uM) | Dose.FC.LYZ.S ([2]; dose 0.08 uM) | Dose.FC.LYZ.S ([2]; dose 0.40 uM) | Dose.FC.LYZ.S ([2]; dose 2.00 uM) | Dose.FC.LYZ.S ([2]; dose 10.00 uM) | Dose.FC.CTG (ENR+CD organoids; dose 0.08 uM) | Z.CTG (standard z score) (ENR+CD organoids; dose 0.08 uM) | Dose.FC.CTG (ENR+CD organoids; dose 0.40 uM) | Z.CTG (standard z score) (ENR+CD organoids; dose 0.40 uM) | Dose.FC.CTG (ENR+CD organoids; dose 2.00 uM) | Z.CTG (standard z score) (ENR+CD organoids; dose 2.00 uM) | Dose.FC.CTG (ENR+CD organoids; dose 10.00 uM) | Z.CTG (standard z score) (ENR+CD organoids; dose 10.00 uM) | further results
1 | CN(C)C(=O)c1ccc(S(=O)(=O)c2ccc(NC(=O)[C@@](C)(O)C(F)(F)F)c(Cl)c2)cc1 [AZD7545] | 0.087 log2 fold change | 0.758 | −0.028 log2 fold change | −0.245 | −0.018 log2 fold change | −0.155 | −0.051 log2 fold change | −0.441 | 0.111 log2 fold change | −0.017 log2 fold change | −0.148 log2 fold change | −0.104 log2 fold change | −0.334 log2 fold change | −0.798 | −0.158 log2 fold change | −0.378 | −0.255 log2 fold change | −0.608 | −0.350 log2 fold change | −0.836 | 
2 | COc1ccccc1S(=O)(=O)Nc1ccc2c(c1)CN(C)C(=O)N2 [PFI-1 (PF-6405761)] |  |  |  |  |  |  |  |  |  |  |  |  |  |  |  |  |  |  |  |  | Z.LYZ.NS ([1]; primary screen, dose 0.08 uM, standard z score): 0.538; Z.LYZ.NS ([1]; primary screen, dose 0.40 uM, standard z score): 0.691; Z.LYZ.NS ([1]; primary screen, dose 2.00 uM, standard z score): −0.852; Z.LYZ.NS ([1]; primary screen, dose 10.00 uM, standard z score): −0.573; Dose.FC.LYZ.NS ([1]; primary screen; dose 0.08 uM; FC vs plate median): 0.062 log2 fold change; Dose.FC.LYZ.NS ([1]; primary screen; dose 0.40 uM; FC vs plate median): 0.079 log2 fold change; Dose.FC.LYZ.NS ([1]; primary screen; dose 2.00 uM; FC vs plate median): −0.098 log2 fold change; Dose.FC.LYZ.NS ([1]; primary screen; dose 10.00 uM; FC vs plate median): −0.066 log2 fold change; Dose.FC.LYZ.S [2, 3]: 0.061 log2 fold change; Dose.FC.LYZ.S [2, 4]: 0.104 log2 fold change; Dose.FC.LYZ.S [2, 5]: −0.117 log2 fold change; Dose.FC.LYZ.S [2, 6]: −0.194 log2 fold change; Z.CTG (ENR+CD organoids; dose 0.08 uM): 0.340; Z.CTG (ENR+CD organoids; dose 0.40 uM): 0.931; Z.CTG (ENR+CD organoids; dose 2.00 uM): 0.770; Z.CTG (ENR+CD organoids; dose 10.00 uM): −0.929; Dose.FC.CTG (ENR+CD organoids; [3]): 0.142 log2 fold change; Dose.FC.CTG (ENR+CD organoids; [4]): 0.390 log2 fold change; Dose.FC.CTG (ENR+CD organoids; [5]): 0.322 log2 fold change; Dose.FC.CTG (ENR+CD organoids; [6]): −0.389 log2 fold change
3 | CCOC(=O)C1=C(C)NC(C)=C(C(=O)OC)C1c1cccc(Cl)c1Cl (stereo not drawn) [Felodipine] | 0.001 log2 fold change |  | −0.033 log2 fold change |  | 0.002 log2 fold change |  | −0.056 log2 fold change |  | 0.008 log2 fold change | −0.042 log2 fold change | −0.003 log2 fold change | −0.067 log2 fold change | −0.078 log2 fold change |  | −0.319 log2 fold change |  | 0.011 log2 fold change |  | 0.032 log2 fold change |  | Z.LYZ.NS ([1]; primary screen, standard z score, dose 0.08 uM): 0.010; Z.LYZ.NS ([1]; primary screen, standard z score, dose 0.40 uM): −0.284; Z.LYZ.NS ([1]; primary screen, standard z score, dose 2.00 uM): 0.017; Z.LYZ.NS ([1]; primary screen, standard z score, dose 10.00 uM): −0.487
4 | COc1ccc2c(c1)c(C1=C(c3c[nH]c4ccccc34)C(=O)NC1=O)cn2CCCN(C)C [Go 6983] |  | −0.046 |  | 0.114 |  | 0.791 |  | −0.798 |  |  |  |  |  | 0.050 |  | −0.085 |  | 0.138 |  | −0.433 | Dose.FC.LYZ.NS (log2 fold change) ([1]; primary screen, dose 0.08 uM): −0.005; Dose.FC.LYZ.NS (log2 fold change) ([1]; primary screen, dose 0.40 uM): 0.013; Dose.FC.LYZ.NS (log2 fold change) ([1]; primary screen, dose 2.00 uM): 0.091; Dose.FC.LYZ.NS (log2 fold change) ([1]; primary screen, dose 10.00 uM): −0.092; Dose.FC.LYZ.S (log2 fold change) ([2]; dose 0.08 uM): 0.021; Dose.FC.LYZ.S (log2 fold change) ([2]; dose 0.40 uM): 0.007; Dose.FC.LYZ.S (log2 fold change) ([2]; dose 2.00 uM): −0.010; Dose.FC.LYZ.S (log2 fold change) ([2]; dose 10.00 uM): −0.073; Dose.FC.CTG (log2 fold change) (ENR+CD organoids; dose 0.08 uM): 0.021; Dose.FC.CTG (log2 fold change) (ENR+CD organoids; dose 0.40 uM): −0.036; Dose.FC.CTG (log2 fold change) (ENR+CD organoids; dose 2.00 uM): 0.058; Dose.FC.CTG (log2 fold change) (ENR+CD organoids; dose 10.00 uM): −0.181
5 | CN(C)C(=O)Nc1cccc(-c2ccc(N(C)C)cc2)c1 [Atglistatin] | 0.069 log2 fold change | 0.604 | 0.135 log2 fold change | 1.176 | 0.070 log2 fold change | 0.613 | −0.016 log2 fold change | −0.142 | 0.028 log2 fold change | −0.035 log2 fold change | 0.026 log2 fold change | 0.012 log2 fold change | 0.057 log2 fold change | 0.137 | 0.004 log2 fold change | 0.009 | −0.045 log2 fold change | −0.108 | −0.431 log2 fold change | −1.031 | 
